The RepoRT retention time repository (doi:10.1021/acs.analchem.2c02893)

Test: RP, Thermo Scientific Acclaim RSLC 120 C18, 100 × 2.1 mm, 2.2 µm, 30 °C, 0.2 mL/min, estimated dead time 1.1 min; A: 90% water + 10% methanol + 0.01% formic acid + 5 mM ammonium formate, pH 3.61; B: methanol + 0.01% formic acid + 5 mM ammonium formate, pH 3.61; gradient (min/%B) 0/1 1/1 2/39 13/99.9 15/99.9 15.1/1 20.1/1
Settings: stereoisomer not certain

Row | Compound | LC retention time [min]
1 | CCOP(=S)(OCC)Oc1nc(Cl)c(Cl)cc1Cl [Chlorpyriphos] | 12.7
2 | CC(=NC#N)N(C)Cc1ccc(Cl)nc1 [Acetamiprid] | 5.17
3 | O=C(NC(=O)c1c(F)cccc1F)Nc1ccc(Oc2ccc(C(F)(F)F)cc2Cl)cc1F [Flufenoxuron] | 12.9
4 | c1ccc(CN(CCN2CCCC2)c2ccccc2)cc1 [Histapyrrodine] | 7.19
5 | CCC(C)c1ccccc1OC(=O)NC (stereo not drawn) [Fenobucarb] | 9.05
6 | Nc1c(Br)cc(Br)cc1CNC1CCC(O)CC1 (stereo not drawn) [Ambroxol] | 6.04
7 | Cc1cc(C)c(C2=C(OC(=O)CC(C)(C)C)C3(CCCC3)OC2=O)c(C)c1 [Spiromesifen] | 12.8
8 | Nc1ccc2c(c1)C(c1ccccc1)=NCC(=O)N2 [Nitrazepam- 7-Amino] | 4.78
9 | CCCNC(C)Cc1ccccc1 (stereo not drawn) [Amphetamine-N-Propyl] | 4.83
10 | CC1=CC(=O)N2CC(=O)N(C)c3ccc(Cl)cc3C2(c2ccccc2)O1 (stereo not drawn) [Ketazolam] | 9.79
11 | CC(NC(C)(C)C)C(=O)c1cccc(Cl)c1 (stereo not drawn) [Bupropion] | 5.76
12 | CN1CCC23c4c5ccc(OC6OC(C(=O)O)C(O)C(O)C6O)c4OC2C(O)C=CC3C1C5 [Morphine-3-beta-D-glucuronide] | 1.63
13 | CCOP(=S)(OCC)SCS(=O)(=O)C(C)(C)C [Terbufos sulfone] | 9.01
14 | CCOC(=O)NC(=S)Nc1ccccc1NC(=S)NC(=O)OCC [Thiophanate-ethyl] | 8.61
15 | COc1nc(C)nc(NC(=O)NS(=O)(=O)c2ccccc2CCC(F)(F)F)n1 [Prosulfuron] | 8.57
16 | S=C1N=CN=C2N=CN=C12 [Mercaptopurine (6-)] | 2.61
17 | CON=C(C1=NOCCO1)c1ccccc1Oc1ncnc(Oc2ccccc2Cl)c1F [Fluoxastrobin] | 9.95
18 | COCC(C)N(C(=O)CCl)c1c(C)csc1C (stereo not drawn) [Dimethenamide] | 9.26
19 | CN1CCC23c4c5ccc(O)c4OC2C(O)CCC3C1C5 (stereo not drawn) [Morphine-Dihydro] | 2.66
20 | C[N+](C)(C)CCCl [Chlormequat] | 1.67
21 | CC=CCC1=C(C)C(OC(=O)C2C(C=C(C)C)C2(C)C)CC1=O (stereo not drawn) [Pyrethrins: Cinerin I] | 12.9

Row | Compound | LC retention time [min]
22 | COc1cc(CCNCc2ccccc2OC)c(OC)cc1I [25I-NBoMe] | 8.03
23 | CCN(C(=O)SCc1ccccc1)C(C)C(C)C (stereo not drawn) [Esprocarb] | 12.2
24 | CC(Cc1ccc(C(C)(C)C)cc1)CN1CCCCC1 (stereo not drawn) [Fenpropidin] | 8.62
25 | CCC(=O)C(CCN(C)C)(c1ccccc1)c1ccccc1 [Methadone-Nor] | 7.68
26 | C#CCN(C)C(C)Cc1ccccc1 (stereo not drawn) [Deprenyl / Selegiline] | 4.68
27 | CC12CCC3C4CCC(=O)C=C4CCC3C1CCC2OC(=O)CCc1ccccc1 (stereo not drawn) [Nandrolone phenylpropionate] | 13.6
28 | CN(C)c1nc(=O)n(C2CCCCC2)c(=O)n1C [Hexazinone] | 7.09
29 | CNC(=O)Oc1cccc2c1OC(C)(C)O2 [Bendiocarb] | 7.02
30 | CC(C)(C)C(NC(=O)c1nn(Cc2ccc(F)cc2)c2ccccc12)C(N)=O (stereo not drawn) [ADB-FUBINACA] | 10.3
31 | Cc1nc(N(C)C)nc(OC(=O)N(C)C)c1C [Pirimicarb] | 7.77
32 | CCNc1nc(NC(C)(C)C)nc(SC)n1 [Terbutryn] | 10.2
33 | CCCCCn1cc(C(=O)Oc2cccc3cccnc23)c2ccccc21 [PB-22] | 11.9
34 | COc1ccc2c(c1)[nH]c1c(C)nccc12 [Harmine] | 5.34
35 | CC12CCC(=O)C=C1C1CC1C1C2CCC2(C)C1C1CC1C21CCC(=O)O1 (stereo not drawn) [Drospirenone] | 9.56
36 | NC(N)=NS(=O)(=O)c1ccc(N)cc1 [Sulfaguanidine] | 1.93
37 | CC(N)Cc1ccc2ccoc2c1 (stereo not drawn) [Benzofuran-6-ylpropan-2-amine<U+00A0>(6-APB)] | 4.81
38 | CCCCCn1cc(C(=O)Nc2cccc3ccccc23)c2ccccc21 [NNEI] | 11.7
39 | CCCCCCCCn1sccc1=O [2-Octyl-4-isothiazolin-3-one] | 10.3
40 | CN=CNc1ccc(C)cc1C [N'-(2 4-Dimethylphenyl)-N-methylformamidine] | 4.44
41 | CC1(C)C(C=CC(=O)OC(C(F)(F)F)C(F)(F)F)C1C(=O)OC(C#N)c1cccc(Oc2ccccc2)c1 (stereo not drawn) [Acrinathrin] | 9.17
42 | NC(=O)c1c(Cl)cccc1Cl [Dichlorobenzamide] | 4.48

Next, values leading:

Row | LC retention time [min] | Compound
43 | 10.6 | COC(=O)C(C)Oc1ccc(Cl)cc1C (stereo not drawn) [Mecoprop-methylester]
44 | 6.67 | Cc1cccc(Nc2ccncc2S(=O)(=O)NC(=O)NC(C)C)c1 [Torasemide]
45 | 9.48 | CC(C)OC(=O)NC(C(=O)NC(C)c1nc2ccc(F)cc2s1)C(C)C (stereo not drawn) [Benthiavalicarb-isopropyl]
46 | 7.23 | Cc1c(C(C)C)c(=O)n(-c2ccccc2)n1C [Propyphenazone]
47 | 8.28 | COCCCCC(=NOCCN)c1ccc(C(F)(F)F)cc1 [Fluvoxamine]
48 | 6.81 | NS(=O)(=O)c1cc2c(cc1Cl)NC(CSCc1ccccc1)=NS2(=O)=O [Benzthiazide]
49 | 10.9 | CCCc1nn(C)c2c(=O)[nH]c(-c3cc(S(=O)(=O)N4CCCCC4)ccc3OCC)nc12 [Sildenafil Norneo]
50 | 10.1 | CCCCc1oc2ccc(NS(C)(=O)=O)cc2c1C(=O)c1ccc(OCCCN(CCCC)CCCC)cc1 [Dronedarone]
51 | 6.14 | CC(C)CC1Nc2cc(Cl)c(S(N)(=O)=O)cc2S(=O)(=O)N1 (stereo not drawn) [Butizide]
52 | 7.63 | CNCCC(Oc1ccccc1C)c1ccccc1 (stereo not drawn) [Atomoxetine]
53 | 4.75 | COc1ncnc(NS(=O)(=O)c2ccc(N)cc2)c1OC [Sulfadoxine]
54 | 3.09 | CC(C)NCC(O)COc1ccc(CC(N)=O)cc1 (stereo not drawn) [Atenolol]
55 | 4.31 | Cc1cc(C)nc(NS(=O)(=O)c2ccc(N)cc2)n1 [Sulfadimidine (Sulfamethazine)]
56 | 3.93 | O=C(O)Cc1c[nH]c2ccc(O)cc12 [5-Hydroxyindole-3-acetic acid]
57 | 3.71 | COc1nc(C)nc(N)n1 [2-Methyl-4-amino-6-methoxy-s-triazine]
58 | 11 | CC(=O)OC1(C(C)=O)CCC2C3CC(C)C4=CC(=O)CCC4(C)C3CCC21C (stereo not drawn) [Medroxyprogesteroneacetate]
59 | 11.3 | CCCC(=O)OC1(C(=O)CCl)C(C)CC2C3CCC4=CC(=O)C=CC4(C)C3(F)C(=O)CC21C (stereo not drawn) [Clobetasone butyrate]
60 | 14 | CCCCOC(=O)C1C(C(=O)OCCCC)C2(Cl)C(Cl)=C(Cl)C1(Cl)C2(Cl)Cl (stereo not drawn) [Chlorendate-Dibutyl]
61 | 5.32 | CCn1nc(C(=O)O)c(=O)c2cc3c(cc21)OCO3 [Cinoxacin]
62 | 3.53 | CN1CCN(C)C1=O [Imidazolidinon- 1-3-Dimethyl-2-]
63 | 9.91 | CCCc1nn(C)c2c(=S)nc(-c3cc(S(=O)(=O)N4CC(C)NC(C)C4)ccc3OCC)[nH]c12 (stereo not drawn) [Sildenafil Thiodimethyl]

Row | LC retention time [min] | Compound
64 | 7.83 | CCCc1nn(C)c2c(=O)[nH]c(-c3cc(S(=O)(=O)N4CCN(CCO)CC4)ccc3OCC)nc12 [Sildenafil-Hydroxyhomo]
65 | 12.6 | CCCCCCCCCCCCCC[N+](C)(C)[O-] [N,N-Dimethyltetradecylamine-N-oxide]
66 | 7.62 | COc1cc(OC)nc(NC(=O)NS(=O)(=O)c2c(-c3nnn(C)n3)cnn2C)n1 [Azimsulfuron]
67 | 2.18 | Cc1ncc(CO)c(CO)c1O [Pyridoxine]
68 | 8.79 | O=C(O)COCCN1CCN(C(c2ccccc2)c2ccc(Cl)cc2)CC1 (stereo not drawn) [Cetirizine]
69 | 11.5 | CCOC(=O)N1CCC(=C2c3ccc(Cl)cc3CCc3cccnc32)CC1 [Loratadine]
70 | 8.23 | CN(C)CCC=C1c2ccccc2CCc2ccccc21 [Amitriptyline]
71 | 5.86 | CCCS(=O)(=O)c1ccc2nc(NC(=O)OC)[nH]c2c1 [Albendazole sulfone]
72 | 6.6 | COc1nc(C)nc(NC(=O)NS(=O)(=O)c2ccccc2OCCCl)n1 [Triasulfuron]
73 | 4.21 | Cc1nnc(NS(=O)(=O)c2ccc(N)cc2)s1 [Sulfamethizole]
74 | 12.4 | CCOC(=O)C(Cl)=Cc1cc(N2C(=O)C3=C(CCCC3)C2=O)ccc1Cl [Cinidon-ethyl]
75 | 10.4 | COC(=O)COc1nc(Cl)c(Cl)cc1Cl [Triclopyr-methylester]
76 | 4.09 | NC(C(=O)NC1C(=O)N2C(C(=O)O)=C(Cl)CSC12)c1ccccc1 (stereo not drawn) [Cefaclor]
77 | 8.76 | COc1ccc(CNc2nc(N3CCCC3CO)ncc2C(=O)NCc2ncccn2)cc1Cl (stereo not drawn) [Avanafil]
78 | 11.3 | CCC(=O)OCC(=O)C1(OC(=O)CC)C(C)CC2C3CCC4=CC(=O)C=CC4(C)C3(F)C(O)CC21C (stereo not drawn) [Betamethasone dipropionate]
79 | 15 | CCCCCCCCCCCCCC(=O)NCCC[N+](C)(C)CCCS(=O)(=O)O [Amidosulfobetaine-14]
80 | 2.99 | COc1ccc2c3c1OC1CC(O)C=CC31CCN(C)C2 (stereo not drawn) [Galantamine]
81 | 13.1 | CCCCCCCCCCCC(=O)NCCC[N+](C)(C)CC(=O)O [Lauramidopropylbetaine]
82 | 9.61 | Cc1ccc2c(-c3ccccc3)nc(=O)n(C(C)C)c2c1 [Proquazone]
83 | 9.99 | CCN(CC)CCOC(=O)C1(C2CCCCC2)CCCCC1 [Dicycloverine]
